Patent US20200087403A1, “PHARMACEUTICAL COMPOSITIONS FOR THE TREATMENT OF THROMBOSIS IN PATIENTS SUFFERING FROM A MYELOPROLIFERATIVE NEOPLASM” (INSERM (INSTITUT NATIONAL DE LA SANTÉ ET DE LA RECHERCHE …, priority 2017, published 2020)

T1: P-selectin (Homo sapiens, UniProt P16109)
T1 construct: host or cells: sickle cell disease patients (cited clinical trial)
T1 sequence (P16109 42-830): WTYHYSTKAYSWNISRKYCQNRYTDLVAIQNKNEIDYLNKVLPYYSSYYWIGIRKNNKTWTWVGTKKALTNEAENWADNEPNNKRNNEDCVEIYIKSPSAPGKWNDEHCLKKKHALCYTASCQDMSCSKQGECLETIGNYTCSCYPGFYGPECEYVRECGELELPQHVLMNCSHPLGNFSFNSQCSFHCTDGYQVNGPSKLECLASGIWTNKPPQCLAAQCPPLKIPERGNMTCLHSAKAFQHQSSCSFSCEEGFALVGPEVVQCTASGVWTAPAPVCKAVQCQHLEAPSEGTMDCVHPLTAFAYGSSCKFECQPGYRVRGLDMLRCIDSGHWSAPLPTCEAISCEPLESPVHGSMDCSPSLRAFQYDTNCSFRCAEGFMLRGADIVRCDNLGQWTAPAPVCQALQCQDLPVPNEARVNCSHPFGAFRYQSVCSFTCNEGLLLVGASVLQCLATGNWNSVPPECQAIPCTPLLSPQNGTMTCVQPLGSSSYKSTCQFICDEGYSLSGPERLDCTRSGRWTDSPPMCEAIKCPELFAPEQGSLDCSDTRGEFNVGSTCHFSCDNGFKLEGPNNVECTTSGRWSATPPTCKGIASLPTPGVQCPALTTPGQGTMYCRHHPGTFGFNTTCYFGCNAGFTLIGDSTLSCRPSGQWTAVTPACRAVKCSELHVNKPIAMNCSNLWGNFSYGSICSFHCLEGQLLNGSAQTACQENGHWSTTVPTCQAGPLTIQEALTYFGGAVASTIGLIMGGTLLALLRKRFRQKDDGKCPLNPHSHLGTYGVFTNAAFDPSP

B1: crizanlizumab: anti-P-selectin antibody, SEG101 also named crizanlizumab (antibody, chains of the INN, looked up, V domains shown)
VH: QVQLVQSGAEVKKPGASVKVSCKVSGYTFTSYDINWVRQAPGKGLEWMGWIYPGDGSIKYNEKFKGRVTMTVDKSTDTAYMELSSLRSEDTAVYYCARRGEYGNYEGAMDYWGQGTLVTVSS
VL: DIQMTQSPSSLSASVGDRVTITCKASQSVDYDGHSYMNWYQQKPGKAPKLLIYAASNLESGVPSRFSGSGSGTDFTLTISSLQPEDFATYYCQQSDENPLTFGGGTKVEIK

Tests used:
JAK2V617F HUVECs [1] = experiment: In vitro static adhesion on endothelial cells; format: cell-based, human; conditions: HUVECs pretreated 24 hours with hydroxyurea 100 μM
Description: Cell culture/Lentivirus transduction. Human umbilical venous endothelial cells (HUVECs, Lonza, Basel, Swiss) were cultured in EGM-2 media (Lonza, CC-3156) supplemented with EGM-2 Single Quots (Lonza, CC-4176). Cells were transduced with GFP lentivirus encoding human JAK2V617F or JAK2WT by adding lentiviral supernatant to the medium and incubating overnight at 37° C. An empty lentivirus encoding only for GFP was used as a negative control. Lentivirus were transduced at a multiplicity of infection of 20, allowing more than 95% of GFP positive cells. Transgene stability was verified after each passage and remaining stable throughout the passages. HUVECs were used for experiments between passage 5 and passage 7.
In vitro static adhesion on endothelial cells. Blood samples were performed from well healthy voluntary witnesses. Blood was diluted with PBS (1/2 dilution) and deposed on lymphocyte separation medium (Pancoll, Dominique Dutscher, Brumath, France) before centrifugation at 450 g during 20 minutes to obtain mononuclear cells (MNC). […] We visualized adherent cells using a fluorescent microscope (AxioObserver, Zeiss, Oberkochen, Germany) and analysed images by ZEN imaging software (Zeiss). Well surface was quantified in order to obtain the following ratio: number of adherent cells/mm2. […]

sickle cell mice = conditions: TNF-alpha treated sickle cell mice; cited from earlier work
JAK2V617F HUVECs [2] = experiment: Quantification of VWF in HUVEC supernatant; format: cell-based, human; conditions: 24 hours with 100 μM hydroxyurea
Description: Quantification of VWF in HUVEC supernatant and in HUVECs. HUVEC cell were seeded in 12 wells plate (Costar). When they were confluent, they were washed with 500 μL of PBS (Gibco ThermoFisher Scientific) before adding 500 μL of medium not deprived. Experiments were performed in absence or in presence of TNF-alpha (10 ng/ml during 24 hours) (Merck Millipore). After 24 hours, supernatant was removed, centrifuged at 12000 g during 5 minutes and stored at −80° C. To quantify vWF in HUVECs, cells were washed with PBS before adding in wells 500 μL of PBS. Cells were destroyed in wells with scrapper. Liquid was removed and 5 freezing and thawing successions were performed. Finally, the intracellular lysates were centrifuged at 12000 g during 5 minutes and stored at −80° C. As previously published^45, vWF was quantified following this method: […] plate (Greiner, Flat Bottom) were coated with an anti-vWF antibody (DAKO, Les Ulis, France, A0082) diluted at 1/660 in a coating buffer overnight at 4° C. After washing and blocking, sample of HUVEC supernatant and intracellular lysate were put in wells. Standards were realized with a platelet poor plasma from a healthy donor. […] After 2 minutes of coloration, the reaction was blocked with a H2SO4 3M solution and reading was performed at 492 nm with OPTIMA plate reader. […]

[3] = system: Pdgfb-iCreERT2;JAK2^V617F/WT mice; experiment: Mouse model of thrombus formation (low dose TNF-alpha induced lung thrombus formation); format: in vivo; conditions: HU 200 mg/kg/day oral gavage 10 days
Text: (§1) Generation and characterization of Pdgfb-iCreERT2;JAK2^V617F/WT mice. The conditional flexed JAK2 (JAK2V617F/WT) mice were generously provided by J. L Villeval and have been previously described^19. The double-heterozygous Pdgfb-iCreERT2;JAK2^V617F/WT mice were generated by crossing JAK2^V617F/WT mice with Pdgfb-iCreERT2 mice allowing tamoxifen-inducible adult expression of JAK2^V617F in endothelium. Littermate Pdgfb-iCreERT2-negative;JAK2^V617F/WT mice were used as controls. To induce Cre activity in Pdgfb-iCreERT2;JAK2^V617F/WT mice, we used oral gavage of a single dose of 8 mg of tamoxifen. Tamoxifen induction was performed in 5 weeks-old animals. Mutant mice were analysed 2-3 weeks after tamoxifen administration. Ears of adult mice were genotyped by PCR. Haematocrit, hemoglobin level, platelet, and white cells count were determined using an automated counter (scil Vet abc Plus+) on blood collected from the sublingual vein in EDTA containing tubes. […]
Histology. To quantify thrombus formation in mice, Carstair's staining was performed. […] Thrombus quantification was performed using an optical microscope and pulmonary area was quantitated to perform the following ratio: thrombi number/pulmonary area (number of thrombi/cm2). Three slides by mice were analysed by two independent observers, blindly. […]

[4] = system: Pdgfb-iCreERT2;JAK2^V617F/WT mice; experiment: Intravital microscopy of mesenteric venules (leukocyte rolling and adhesion); format: in vivo; conditions: HU 200 mg/kg/day oral gavage 10 days, low dose TNF-alpha
Text: as §1
Video analysis. Rolling leukocytes were quantitated by counting the number of rhodamin-marked cells passing a given plane perpendicular to the vessel axis in 30 seconds. Adherent leukocytes were quantitated by counting the number of rhodamin-marked cells motionless during 30 seconds. Vessel surface was quantitated to perform the following ratio: adherent cells/vessel surface (number of cells/cm2). […]

P-selectin = target: T1, P-selectin; conditions: clinical trial, patients; cited from earlier work

Row | Molecule | neutrophil adhesion on JAK2V617F HUVECs (JAK2V617F HUVECs [1]) | leukocyte rolling in the microvasculature (sickle cell mice) | vWF concentrations in the supernatant of JAK2V617F HUVECs (JAK2V617F HUVECs [2]) | thrombus formation in lungs [3] | leukocyte adhesion [4] | leukocyte rolling [4] | pain crises in sickle cell disease (P-selectin)
1 | NC(=O)NO [hydroxyurea] | significant reduction | reduction | decreased | significant inhibition | reduction | reduction | 
2 | B1 |  |  |  |  |  |  | efficiently prevented
